Test: xn = mol fraction of the nth substance listed
Conditions: 101 kPa, Liquid; for mass density: Vibrating tube method

CCCC[n+]1cccc(C)c1.F[B-](F)(F)F [1-butyl-3-methylpyridinium tetrafluoroborate] + CO
Conditions | kinematic viscosity, 293.15 K [m2/s] | kinematic viscosity, 303.15 K [m2/s] | kinematic viscosity, 313.15 K [m2/s] | kinematic viscosity, 323.15 K [m2/s] | mass density, 293.15 K [kg/m3] | mass density, 303.15 K [kg/m3] | mass density, 313.15 K [kg/m3] | mass density, 323.15 K [kg/m3]
x1 = 0.0481 | 1.03e-06 | 8.95e-07 | 7.88e-07 | 7e-07 | 876.92 | 868.11 | 858.9 | 850
x1 = 0.0975 | 1.45e-06 | 1.22e-06 | 1.06e-06 | 9.17e-07 | 937.91 | 929.46 | 920.91 | 912.45
x1 = 0.1973 | 2.72e-06 | 2.2e-06 | 1.88e-06 | 1.61e-06 | 1017.57 | 1009.42 | 1001.41 | 993.31
x1 = 0.3001 | 4.45e-06 | 3.44e-06 | 3.04e-06 | 2.54e-06 | 1067.85 | 1059.92 | 1052.02 | 1044.13
x1 = 0.4013 | 7.03e-06 | 5.64e-06 | 4.73e-06 | 3.95e-06 | 1101.07 | 1093.38 | 1085.61 | 1077.93
x1 = 0.4969 | 1.2e-05 | 9.04e-06 | 7.23e-06 | 5.68e-06 | 1123.81 | 1116.36 | 1108.79 | 1101.32
x1 = 0.5985 | 1.98e-05 | 1.45e-05 | 1.08e-05 | 8.38e-06 | 1142.18 | 1134.95 | 1127.63 | 1120.38
x1 = 0.6972 | 3.36e-05 | 2.31e-05 | 1.69e-05 | 1.27e-05 | 1156.2 | 1149.14 | 1142.07 | 1134.99
x1 = 0.7942 | 5.92e-05 | 3.53e-05 | 2.51e-05 | 1.76e-05 | 1167.41 | 1160.48 | 1153.59 | 1146.64
x1 = 0.8427 | 7.8e-05 | 4.59e-05 | 3.12e-05 | 2.13e-05 | 1172.3 | 1165.41 | 1158.59 | 1151.69
x1 = 0.8978 | 0.00011 | 6.28e-05 | 4.03e-05 | 2.67e-05 | 1177.37 | 1170.53 | 1163.75 | 1156.91
x1 = 0.9689 | 0.000171 | 9.3e-05 | 5.65e-05 | 3.61e-05 | 1183.27 | 1176.47 | 1169.72 | 1162.95

CCCC[n+]1ccc(C)cc1.F[B-](F)(F)F [1-butyl-4-methylpyridinium tetrafluoroborate] + CCO
Conditions | kinematic viscosity, 293.15 K [m2/s] | kinematic viscosity, 303.15 K [m2/s] | kinematic viscosity, 313.15 K [m2/s] | kinematic viscosity, 323.15 K [m2/s] | mass density, 293.15 K [kg/m3] | mass density, 303.15 K [kg/m3] | mass density, 313.15 K [kg/m3] | mass density, 323.15 K [kg/m3]
x1 = 0.0481 | 1.95e-06 | 1.61e-06 | 1.34e-06 | 1.14e-06 | 852 | 843.78 | 835.55 | 827.17
x1 = 0.0952 | 2.57e-06 | 2.07e-06 | 1.69e-06 | 1.41e-06 | 900.2 | 892.25 | 884.1 | 875.8
x1 = 0.1896 | 4.08e-06 | 3.17e-06 | 2.53e-06 | 2.08e-06 | 972.12 | 964.56 | 956.53 | 948.48
x1 = 0.2856 | 6.35e-06 | 4.76e-06 | 3.75e-06 | 3.03e-06 | 1024.13 | 1016.72 | 1008.96 | 1001.26
x1 = 0.3839 | 9.91e-06 | 7.25e-06 | 5.54e-06 | 4.4e-06 | 1063.87 | 1056.57 | 1049.08 | 1041.7
x1 = 0.5297 | 1.96e-05 | 1.44e-05 | 1.05e-05 | 7.4e-06 | 1107.23 | 1100.11 | 1092.88 | 1085.83
x1 = 0.5858 | 2.57e-05 | 1.76e-05 | 1.33e-05 | 9.33e-06 | 1120.51 | 1113.47 | 1106.29 | 1099.32
x1 = 0.6862 | 4e-05 | 2.78e-05 | 1.96e-05 | 1.36e-05 | 1140.91 | 1133.97 | 1126.84 | 1119.98
x1 = 0.7889 | 7.27e-05 | 4.37e-05 | 3.05e-05 | 2.08e-05 | 1158.26 | 1151.41 | 1144.3 | 1137.51
x1 = 0.8418 | 9.79e-05 | 5.71e-05 | 3.87e-05 | 2.59e-05 | 1166.08 | 1159.26 | 1152.16 | 1145.41
x1 = 0.8942 | 0.000132 | 7.41e-05 | 4.81e-05 | 3.15e-05 | 1173.2 | 1166.4 | 1159.32 | 1152.61
x1 = 0.946 | 0.000177 | 9.52e-05 | 5.94e-05 | 3.79e-05 | 1179.69 | 1172.89 | 1165.84 | 1159.18

CCCC[n+]1ccc(C)cc1.F[B-](F)(F)F [1-butyl-4-methylpyridinium tetrafluoroborate] + CO
Conditions | kinematic viscosity, 293.15 K [m2/s] | kinematic viscosity, 303.15 K [m2/s] | kinematic viscosity, 313.15 K [m2/s] | kinematic viscosity, 323.15 K [m2/s] | mass density, 293.15 K [kg/m3] | mass density, 303.15 K [kg/m3] | mass density, 313.15 K [kg/m3] | mass density, 323.15 K [kg/m3]
x1 = 0.0477 | 1.02e-06 | 8.83e-07 | 7.78e-07 | 6.88e-07 | 876.71 | 867.94 | 858.74 | 849.6
x1 = 0.0958 | 1.42e-06 | 1.2e-06 | 1.02e-06 | 8.92e-07 | 936.07 | 927.56 | 918.89 | 910.02
x1 = 0.2055 | 2.83e-06 | 2.29e-06 | 1.91e-06 | 1.62e-06 | 1021.53 | 1013.48 | 1005.4 | 997.15
x1 = 0.2889 | 4.57e-06 | 3.6e-06 | 2.92e-06 | 2.44e-06 | 1062.26 | 1054.51 | 1046.65 | 1038.82
x1 = 0.3846 | 7.5e-06 | 5.73e-06 | 4.53e-06 | 3.7e-06 | 1095.45 | 1087.98 | 1080.32 | 1072.88
x1 = 0.4866 | 1.31e-05 | 9.56e-06 | 7.3e-06 | 5.78e-06 | 1121.16 | 1113.92 | 1106.46 | 1099.31
x1 = 0.589 | 2.12e-05 | 1.58e-05 | 1.15e-05 | 8.6e-06 | 1140.6 | 1133.51 | 1126.23 | 1119.29
x1 = 0.7073 | 3.61e-05 | 2.59e-05 | 1.9e-05 | 1.3e-05 | 1157.8 | 1150.84 | 1143.72 | 1136.94
x1 = 0.7963 | 6.42e-05 | 4.11e-05 | 2.8e-05 | 1.93e-05 | 1168.12 | 1161.22 | 1154.18 | 1147.48
x1 = 0.8459 | 8.43e-05 | 5.16e-05 | 3.41e-05 | 2.29e-05 | 1173.12 | 1166.24 | 1159.23 | 1152.56
x1 = 0.8947 | 0.00012 | 6.92e-05 | 4.41e-05 | 2.85e-05 | 1177.58 | 1170.73 | 1163.73 | 1157.09
x1 = 0.9465 | 0.000168 | 9.14e-05 | 5.59e-05 | 3.56e-05 | 1181.89 | 1175.06 | 1168.07 | 1161.45

CCCC[n+]1ccccc1.F[B-](F)(F)F [1-butylpyridinium tetrafluoroborate] + CO
Conditions | kinematic viscosity, 293.15 K [m2/s] | kinematic viscosity, 303.15 K [m2/s] | kinematic viscosity, 313.15 K [m2/s] | kinematic viscosity, 323.15 K [m2/s] | mass density, 293.15 K [kg/m3] | mass density, 303.15 K [kg/m3] | mass density, 313.15 K [kg/m3] | mass density, 323.15 K [kg/m3]
x1 = 0.0478 | 1.08e-06 | 8.99e-07 | 7.44e-07 | 6.21e-07 | 878.25 | 869.29 | 860.54 | 852.41
x1 = 0.0959 | 1.55e-06 | 1.27e-06 | 1.03e-06 | 8.64e-07 | 940.74 | 931.43 | 923.47 | 916
x1 = 0.1952 | 2.79e-06 | 2.21e-06 | 1.75e-06 | 1.44e-06 | 1026.08 | 1017.92 | 1010.59 | 1003.55
x1 = 0.2938 | 4.62e-06 | 3.53e-06 | 2.73e-06 | 2.2e-06 | 1080.36 | 1072.63 | 1065.38 | 1058.43
x1 = 0.3916 | 7.4e-06 | 5.61e-06 | 4.29e-06 | 3.41e-06 | 1117.45 | 1109.94 | 1102.7 | 1095.78
x1 = 0.4921 | 1.19e-05 | 8.77e-06 | 6.56e-06 | 5.13e-06 | 1145.14 | 1137.76 | 1130.52 | 1123.61
x1 = 0.5949 | 2e-05 | 1.4e-05 | 1.03e-05 | 7.68e-06 | 1166.53 | 1159.2 | 1152.11 | 1145.11
x1 = 0.6989 | 3.26e-05 | 2.22e-05 | 1.56e-05 | 1.16e-05 | 1183.41 | 1176.16 | 1169.22 | 1162.18
x1 = 0.7972 | 5.32e-05 | 3.4e-05 | 2.31e-05 | 1.65e-05 | 1196.34 | 1189.23 | 1182.46 | 1175.36
x1 = 0.8478 | 7.2e-05 | 4.49e-05 | 2.97e-05 | 2.07e-05 | 1202.15 | 1195.1 | 1188.42 | 1181.32
x1 = 0.8978 | 9.63e-05 | 5.72e-05 | 3.68e-05 | 2.51e-05 | 1207.4 | 1200.46 | 1193.84 | 1186.75
x1 = 0.9471 | 0.00013 | 7.39e-05 | 4.61e-05 | 3.06e-05 | 1212.3 | 1205.38 | 1198.8 | 1191.71
